These results are taken from ChEMBL document CHEMBL1147205 (Eur J Med Chem, 2007).

Data set [1] is described as follows: physchem. The note with it: phosphate buffer, pH 7.5.
Description: Lipophilicity in phosphate buffer at pH 7.5
Data set [2] is described as follows: physchem. The note with it: phosphate buffer, pH 5.
Description: Solubility in phosphate buffer at pH 5.0
For data set [3] the following is noted: artificial membrane.
Description: Affinity to immobilized artificial membrane by reversed phase HPLC
A short description of data set [4]: physchem. The note with it: phosphate buffer, pH 7.4.
Description: Solubility in phosphate buffer at pH 7.4
Data set [5] concerns Macrophage. The experiment in a line: Inhibition of SP-A degradation in rabbit alveolar macrophages. The class given is functional, cell-based. The note with it: Oryctolagus cuniculus.
The subject of data set [6] is Macrophage. The experiment in a line: Effect on rabbit alveolar macrophages assessed as reduction in viability at 50 uM by trypan blue exclusion. It counts as functional, cell-based. The following applies: Oryctolagus cuniculus.

The structures appear in SMILES notation. Values after ≈ are worked out from the molar mass of the structure shown. Active and inactive are the calls of the source. The calls are words filed in the database; no cut-off is given here.

As for `CCCCc1oc2ccccc2c1C(=O)c1cc(I)c(OCCN2CCOCC2)c(I)c1`, the logD – broadly, lipophilicity at a set pH, counting ionised and neutral species – in the data set “physchem [1]” turned out to be 6.15. Besides, the figures for the solubility in the data set “physchem [2]” and in “physchem [4]” were 170 µM (≈ 112 µg/mL) and 15 µM (≈ 9.89 µg/mL), respectively. Also, in data set [3], the “logD IAM” value was determined as 3.36.

With `CCCCc1oc2ccccc2c1C(=O)c1cc(I)c(OCCN2CCCCC2)c(I)c1`, the outcome in the data set on Macrophage [5] was Active. In addition, the logD in the data set “physchem [1]” was 8.04. Also, the solubility (usually the concentration that dissolves in the medium under given conditions) was 2220 µM (≈ 1460 µg/mL) in “physchem [2]” and 23 µM (≈ 15.1 µg/mL) in “physchem [4]”. The “logD IAM” value in data set [3] stood at 4.28.

Consider `CCCCc1oc2ccccc2c1C(=O)c1cc(I)c(OCCN2CCCC2)c(I)c1`, for which the outcome in the data set with Macrophage [5] and in the data set on Macrophage [6] was Active. Also, the logD in “physchem [1]” turned out to be 7.82. In addition, the solubility in “physchem [2]” turned out to be 1860 µM (≈ 1200 µg/mL); in “physchem [4]”, 49 µM (≈ 31.5 µg/mL). Further, the “logD IAM” value in data set [3] came to 4.23.

In “physchem [1]”, `CCCCc1oc2ccccc2c1C(=O)c1cc(I)c(OCCN(C)C)c(I)c1` came in with a logD of 7.15. Also, the solubility is 2210 µM (≈ 1360 µg/mL) in “physchem [2]” and 51 µM (≈ 31.5 µg/mL) in the data set “physchem [4]”. Further, the “logD IAM” value in data set [3] turned out to be 3.64.

Turning to `CCCCc1oc2ccccc2c1C(=O)c1cc(I)c(OCCN(C(C)C)C(C)C)c(I)c1`, the logD in the data set “physchem [1]” was found to be 8.74. Further, the solubility in “physchem [2]” turned out to be 230 µM (≈ 155 µg/mL); in “physchem [4]” it was 14 µM (≈ 9.43 µg/mL). In data set [3], the “logD IAM” value turned out to be 4.58.

With `CCCCc1oc2ccccc2c1C(=O)c1cc(I)c(OCCCN(C)C)c(I)c1`, the result in the data set on Macrophage [5] and in the data set on Macrophage [6] was Active. This compound also registered a logD in “physchem [1]” of 7.98. In addition, the solubility came to 1040 µM (≈ 657 µg/mL) in “physchem [2]” and 212 µM (≈ 134 µg/mL) in “physchem [4]”. For the same compound, the “logD IAM” value in data set [3] came out at 3.56.
